Test results published in patent publication US20090176811A1, “Substituted 5,6,7,8-Tetrahydro-pyrido[4,3-d]pyrimidine-2-yl Compounds and 5,6,7,8-Tetrahydro-quinazoline-2-yl Compounds” (GRUENENTHAL GmbH, priority 2004, published 2009).

Assays:
[1] = molecular target: T1, 5-HT transporter (Rattus norvegicus, UniProt P31652); test: 5-HT uptake inhibition in rat brain synaptosomes (medulla and pons); type: biochemical
T1 construct: from tissue; host or cells: rat medulla and pons synaptosomes (P2 fraction)
Description: (§1) I. Method for Determining Noradrenalin and 5-HT Uptake Inhibition:
(§2) Synaptosomes from rat brain regions are freshly isolated for in vitro studies, as described in the publication “The isolation of nerve endings from brain” by E. G. Gray and V. P. Whittaker, J. Anatomy 96, pages 79-88, 1962. The corresponding literature description is hereby introduced as a reference and is deemed to be part of the disclosure.
(§3) The tissue (hypothalamus for the determination of noradrenalin uptake inhibition and medulla and pons for the determination of 5-HT uptake inhibition) is homogenised in ice-cooled 0.32 M sucrose (100 mg of tissue/1 mL) in a glass homogeniser with Teflon pestle using five complete up and down strokes at 840 revolutions/minute.
(§4) The homogenate is centrifuged at 4° C. for 10 minutes at 1000 g. After subsequent centrifugation at 17000 g for 55 minutes, the synaptosomes (P2 fraction) are obtained, which are resuspended in 0.32 M […] (0.5 mL/100 mg of original weight).
(§5) The particular uptake is measured in a 96-well microtitre plate. The volume is 250 μl and the incubation proceeds at room temperature (approx. 20-25° C.) under an O2 atmosphere.
(§6) The incubation time is 7.5 minutes for [^3H]-NA and 5 minutes for [^3H]-5-HT.
(§7) The 96 samples are then filtered through a Unifilter GF/B microtitre plate (Packard) and washed with 200 mL of incubated buffer using a “Brabdel MPXRI-96T Cell-Harvester”. The Unifilter GF/B plate is dried for 1 hour at 55° C. The plate is then sealed with a Back seal (Packard) and 35 μl of scintillation fluid are added per well (Ultima Gold, Packard). After sealing with a top seal (Packard) and establishing an equilibrium (around 5 hours), radioactivity is determined in a “Trilux 1450 Microbeta” (Wallac).
(§8) The quantity of protein used in the above determination corresponds to the values known from the literature, as for example described in “Protein measurement with the folin phenol reagent”, Lowry et al., J. Biol. Chem., 193, 265-275, 1951.
(§9) A detailed description of the method may additionally be found in the literature, for example in M. Ch. Frink, H.-H. Hennies, W. Engelberger, M. Haurand and B. Wilffert (1996) Arzneim.-Forsch./Drug Res. 46 (III), 11, 1029-1036.
(§10) The corresponding literature descriptions are hereby introduced in each case as a reference and are deemed to be part of the present disclosure.
(§11) The following characteristics were determined for the NA or 5-HT transporter: […]

[2] = molecular target: T2, NA transporter (Rattus norvegicus, UniProt Q63380); test: Noradrenalin uptake inhibition in rat brain synaptosomes (hypothalamus); type: biochemical
T2 construct: from tissue; host or cells: rat hypothalamus synaptosomes (P2 fraction)
Description: as §1, §2, §3, §4, §5, §6, §7, §8, §9, §10, §11

T2 sequence (Q63380 1-617): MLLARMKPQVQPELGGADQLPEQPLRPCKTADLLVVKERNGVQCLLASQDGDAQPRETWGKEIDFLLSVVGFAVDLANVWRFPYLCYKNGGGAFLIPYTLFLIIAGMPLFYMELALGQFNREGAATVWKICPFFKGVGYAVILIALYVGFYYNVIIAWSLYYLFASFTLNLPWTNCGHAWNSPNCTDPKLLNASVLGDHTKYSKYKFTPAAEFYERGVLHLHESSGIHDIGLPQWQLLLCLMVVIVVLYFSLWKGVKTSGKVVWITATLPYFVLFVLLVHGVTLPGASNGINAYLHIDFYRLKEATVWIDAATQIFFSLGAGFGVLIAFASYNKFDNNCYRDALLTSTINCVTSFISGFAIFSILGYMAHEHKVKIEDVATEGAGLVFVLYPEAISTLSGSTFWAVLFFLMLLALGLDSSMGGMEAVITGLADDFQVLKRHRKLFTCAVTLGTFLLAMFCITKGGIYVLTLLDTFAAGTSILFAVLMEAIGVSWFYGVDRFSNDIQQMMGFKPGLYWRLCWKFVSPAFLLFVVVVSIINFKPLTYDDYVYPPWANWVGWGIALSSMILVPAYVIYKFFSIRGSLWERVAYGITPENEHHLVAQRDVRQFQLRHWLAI
T1 sequence (P31652 whole entry): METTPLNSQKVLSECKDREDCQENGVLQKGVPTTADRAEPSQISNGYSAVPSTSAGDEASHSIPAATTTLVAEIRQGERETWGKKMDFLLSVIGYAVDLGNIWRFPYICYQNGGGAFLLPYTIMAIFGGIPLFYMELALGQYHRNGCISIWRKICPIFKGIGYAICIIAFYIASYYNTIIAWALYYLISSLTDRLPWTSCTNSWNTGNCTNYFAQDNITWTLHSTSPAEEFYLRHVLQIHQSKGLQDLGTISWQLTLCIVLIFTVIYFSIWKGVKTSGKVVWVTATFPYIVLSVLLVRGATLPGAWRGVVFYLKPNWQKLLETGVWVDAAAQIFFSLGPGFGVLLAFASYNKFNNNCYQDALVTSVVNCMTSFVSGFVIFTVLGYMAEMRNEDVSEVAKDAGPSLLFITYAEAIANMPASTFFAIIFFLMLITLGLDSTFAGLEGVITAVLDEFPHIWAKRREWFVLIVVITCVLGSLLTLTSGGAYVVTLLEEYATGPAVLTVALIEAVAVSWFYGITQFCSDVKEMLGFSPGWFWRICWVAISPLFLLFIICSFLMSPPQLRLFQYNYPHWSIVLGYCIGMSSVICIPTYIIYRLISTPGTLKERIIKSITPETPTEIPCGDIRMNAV

| Compound | inhibition at 1 µM [1] | inhibition at 10 µM [2] | other results |
| --- | --- | --- | --- |
| O=C(Nc1ncc2c(n1)CCN(C(=O)c1ccc3ccccc3c1)C2)c1ccc(Cl)cc1 [Example 69] | – | – | 5-HT uptake, rat, 1 μM, % inhibition [1]: 70%; NA uptake, rat, 10 μM, % inhibition [2]: 73% |
| O=C(Nc1ncc2c(n1)CCN(S(=O)(=O)c1ccc(Cl)cc1)C2)c1ccc(Cl)c(Cl)c1 [Example 71, 3,4-dichloro-N-[6-(4-chloro-benzenesulfonyl)-5,6,7,8-tetrahydro-pyrido[4,3-d]pyrimidin-2-yl]-benzamide] | 47% | 74% | – |
| O=C(Nc1ncc2c(n1)CCN(S(=O)(=O)c1cccs1)C2)c1ccc(F)c(F)c1 [Example 72, 3,4-difluoro-N-[6-(thiophene-2-sulfonyl)-5,6,7,8-tetrahydro-pyrido[4,3-d]pyrimidin-2-yl]-benzamide] | – | 41% | – |
| CCc1ccc(C(=O)Nc2ncc3c(n2)CCN(C(=O)c2ccc(-n4cccn4)cc2)C3)cc1 [Example 74, 4-ethyl-N-[6-(4-pyrazol-1-yl-benzoyl)-5,6,7,8-tetrahydro-pyrido[4,3-d]pyrimidin-2-yl]-benzamide] | 54% | 43% | – |
| COc1cccc(C(=O)Nc2ncc3c(n2)CCN(C(=O)c2cccc(F)c2F)C3)c1 [Example 80, N-[6-(2,3-difluoro-benzoyl)-5,6,7,8-tetrahydro-pyrido[4,3-d]pyrimidin-2-yl]-3-methoxy-benzamide] | – | 54% | – |
| COc1ccccc1C(=O)Nc1ncc2c(n1)CCN(S(=O)(=O)c1ccc(Cl)s1)C2 [Example 86, N-[6-(5-chloro-thiophene-2-sulfonyl)-5,6,7,8-tetrahydro-pyrido[4,3-d]pyrimidin-2-yl]-2-methoxy-benzamide] | – | 32% | – |
| Cc1ccc(C(=O)N2CCc3nc(NC(=O)c4ccc(C(C)(C)C)cc4)ncc3C2)cc1[N+](=O)[O-] [Example 92, 4-tert-butyl-N-[6-(4-methyl-3-nitro-benzoyl)-5,6,7,8-tetrahydro-pyrido[4,3-d]pyrimidin-2-yl]-benzamide] | 66% | 35% | – |
| Cc1cc(C)c(S(=O)(=O)N2CCc3nc(NC(=O)c4ccc(Cl)c(Cl)c4)ncc3C2)c(C)c1 [Example 95, 3,4-dichloro-N-[6-(2,4,6-trimethyl-benzenesulfonyl)-5,6,7,8-tetrahydro-pyrido[4,3-d]pyrimidin-2-yl]-benzamide] | 59% | 72% | – |
| Cc1cc(C)c(C)c(S(=O)(=O)N2CCc3nc(NC(=O)c4cccs4)ncc3C2)c1C [Example 99, thiophene-2-carboxylic acid [6-(2,3,5,6-tetramethyl-benzenesulfonyl)-5,6,7,8-tetrahydro-pyrido[4,3-d]pyrimidin-2-yl]-amide] | 41% | 56% | – |
| CCOC(=O)CC(=O)N1CCc2nc(NC(=O)c3cccc(Cl)c3)ncc2C1 [Example 124, 3-[2-(3-chloro-benzoylamino)-7,8-dihydro-5H-pyrido[4,3-d]pyrimidin-6-yl]-3-oxo-propionic acid ethyl ester] | – | 65% | – |
| Cc1ccc(C(=O)Nc2ncc3c(n2)CCN(C(=O)c2ccc(SC(F)(F)F)cc2)C3)cc1 [Example 148, 4-methyl-N-[6-(4-trifluoromethylsulfanyl-benzoyl)-5,6,7,8-tetrahydro-pyrido[4,3-d]pyrimidin-2-yl]-benzamide] | 32% | – | – |
| Cc1ccc([N+](=O)[O-])cc1S(=O)(=O)N1CCc2nc(NC(=O)c3ccccc3F)ncc2C1 [Example 150, 2-fluoro-N-[6-(2-methyl-5-nitro-benzenesulfonyl)-5,6,7,8-tetrahydro-pyrido[4,3-d]pyrimidin-2-yl]-benzamide] | 54% | – | – |
| CCCC(=O)Nc1ncc2c(n1)CCC(NS(=O)(=O)c1ccc(C(C)(C)CC)cc1)C2 (centres unmarked) [Example 167, N-{6-[4-(1,1-dimethyl-propyl)-benzenesulfonylamino]-5,6,7,8-tetrahydro-quinazolin-2-yl}-butyramide] | 32% | – | – |
| CC(C(=O)N1CCc2nc(NC(=O)c3ccccc3)ncc2C1)c1ccc(Cl)cc1 (centres unmarked) [Example 176, N-{6-[2-(4-chloro-phenyl)-propionyl]-5,6,7,8-tetrahydro-pyrido[4,3-d]pyrimidin-2-yl}-benzamide] | – | 38% | – |
| O=C(Nc1ncc2c(n1)CCN(C(=O)c1cccc(F)c1)C2)c1cccc2ccccc12 [Example 183, naphthalene-1-carboxylic acid [6-(3-fluoro-benzoyl)-5,6,7,8-tetrahydro-pyrido[4,3-d]pyrimidin-2-yl]-amide] | – | 63% | – |
| COc1ccc(S(=O)(=O)N2CCc3nc(NC(=O)c4ccc(F)cc4)ncc3C2)cc1 [Example 185, 4-fluoro-N-[6-(4-methoxy-benzenesulfonyl)-5,6,7,8-tetrahydro-pyrido[4,3-d]pyrimidin-2-yl]-benzamide] | – | 36% | – |
| COc1ccccc1C(=O)Nc1ncc2c(n1)CCN(C(=O)COCc1ccccc1)C2 [Example 195, N-[6-(2-benzyloxy-acetyl)-5,6,7,8-tetrahydro-pyrido[4,3-d]pyrimidin-2-yl]-2-methoxy-benzamide] | – | 31% | – |
| COc1cccc(C(=O)Nc2ncc3c(n2)CCN(C(=O)c2cccc(OC(F)(F)F)c2)C3)c1 [Example 199, 3-methoxy-N-[6-(3-trifluoromethoxy-benzoyl)-5,6,7,8-tetrahydro-pyrido[4,3-d]pyrimidin-2-yl]-benzamide] | – | 52% | – |

Continued, in another order:

| inhibition at 1 µM [1] | Compound | inhibition at 10 µM [2] | other results |
| --- | --- | --- | --- |
| 39% | CC(C)(C)c1ccc(C(=O)Nc2ncc3c(n2)CCN(S(=O)(=O)c2ccc([N+](=O)[O-])cc2)C3)cc1 [Example 83, 4-tert-butyl-N-[6-(4-nitro-benzenesulfonyl)-5,6,7,8-tetrahydro-pyrido[4,3-d]pyrimidin-2-yl]-benzamide] | 77% | – |
| 30% | O=C(NC1CCc2nc(NC(=O)c3cccs3)ncc2C1)c1cc(F)cc(F)c1 (centres unmarked) [Example 97, thiophene-2-carboxylic acid [6-(3,5-difluoro-benzoylamino)-5,6,7,8-tetrahydro-quinazolin-2-yl]-amide] | – | – |
| 63% | CC1(C)C2CCC1(CS(=O)(=O)N1CCc3nc(NC(=O)c4cccc(F)c4)ncc3C1)C(=O)C2 (centres unmarked) [Example 102, N-[6-(7,7-dimethyl-2-oxo-bicyclo[2.2.1]hept-1-ylmethanesulfonyl)-5,6,7,8-tetrahydro-pyrido[4,3-d]pyrimidin-2-yl]-3-fluoro-benzamide] | – | – |
| 65% | O=C(Nc1ncc2c(n1)CCN(C(=O)c1cc(F)cc3c1OCOC3)C2)c1ccccc1C(F)(F)F [Example 103, N-[6-(6-fluoro-4H-benzo[1,3]dioxin-8-carbonyl)-5,6,7,8-tetrahydro-pyrido[4,3-d]pyrimidin-2-yl]-2-trifluoromethyl-benzamide] | – | – |
| 32% | CC(C)(C)OC(=O)NCCC(=O)NC1CCc2nc(NC(=O)c3cccs3)ncc2C1 (centres unmarked) [Example 149, (2-{2-[(thiophene-2-carbonyl)-amino]-5,6,7,8-tetrahydro-quinazolin-6-ylcarbamoyl}-ethyl)-carbamic acid tert-butyl ester] | – | – |
| 40% | CCCS(=O)(=O)NC1CCc2nc(NC(=O)c3ccc(F)cc3)ncc2C1 (centres unmarked) [Example 160, 4-fluoro-N-[6-(propane-1-sulfonylamino)-5,6,7,8-tetrahydro-quinazolin-2-yl]-benzamide] | – | – |
| 29% | CCCC(=O)Nc1ncc2c(n1)CCC(NS(=O)(=O)CC13CCC(CC1=O)C3(C)C)C2 (centres unmarked) [Example 162, N-[6-(7,7-dimethyl-2-oxo-bicyclo[2.2.1]hept-1-ylmethanesulfonylamino)-5,6,7,8-tetrahydro-quinazolin-2-yl]-butyramide] | – | – |
| 35% | O=C(Nc1ncc2c(n1)CCC(NS(=O)(=O)Cc1ccccc1)C2)c1cccs1 (centres unmarked) [Example 165, thiophene-2-carboxylic acid (6-phenylmethanesulfonylamino-5,6,7,8-tetrahydro-quinazolin-2-yl)-amide] | – | – |
| 32% | CCN(CC)C(=O)CCC(=O)N1CCc2nc(NC(=O)c3cc(Cl)cc(Cl)c3)ncc2C1 [Example 171, 3,5-dichloro-N-[6-(3-diethylcarbamoyl-propionyl)-5,6,7,8-tetrahydro-pyrido[4,3-d]pyrimidin-2-yl]-benzamide] | – | – |
| 69% | CCc1ccc(C(=O)Nc2ncc3c(n2)CCN(C(=O)c2ccc4ncccc4c2)C3)cc1 [Example 173, 4-ethyl-N-[6-(quinoline-6-carbonyl)-5,6,7,8-tetrahydro-pyrido[4,3-d]pyrimidin-2-yl]-benzamide] | – | – |
